What all share (assay): MTT proliferation assay, JS-K 48 h (Example 3)
Holding throughout (type): cell-based, human
Holding throughout (conditions): 10 concentrations 50 nM to 50 μM
(In general: Tetrazolium dyes change colour on reduction, which living cells bring about.)

The test system of one test is H2030/CRL5914. As for the experimental part:
(§1) JS-K is synthesized as described previously (Saavedra et al., J. Org. Chem., 66: 3090-3098(2001)). Cell lines are obtained from the American Type Culture Collection (Manassas, Va.) and cultured according to the supplier's protocol. For proliferation assays cells are seeded at 2×10^4 per well in 96-well plates and allowed to adhere for 24 h. JS-K is prepared as 10 mM stock solution in DMSO. Increasing drug concentrations in 10 μL of PBS are added to 100 μL of the culture medium for 48 h. MTT assay (Promega, Madison, Wis.) is performed according to the manufacturer's protocol. Each concentration is represented in six repeats, and the screening is performed as at least two independent experiments. IC50 values are calculated using Sigma Plot software (Systat Software, Chicago, Ill.).

The subject of a further test is H1373/CRL5866. The method, then:
as §1

In the next test the test system is H1568/CRL5876. As for the experimental part: as §1

Here are results for 1 compound from patent US9205091B2, “Diazeniumdiolated compounds, pharmaceutical compositions, and method of treating cancer” (The United States of America, as represented by the …, priority 2009, dated 2015).

pIC50: −log10 of the molar value.

The term pIC50 denotes the IC50 on a negative log10 scale, so that one unit is a factor of ten. Low readings indicate a large IC50, high ones a small IC50. Regarding `CCOC(=O)N1CCN(/[N+]([O-])=N/Oc2ccc([N+](=O)[O-])cc2[N+](=O)[O-])CC1` [Compound 1], the pIC50 was 4.83 in the test on H2030/CRL5914, 6.01 with H1373/CRL5866 and 6.40 with H1568/CRL5876.
